In patent publication US20180221384A1, “COMPOSITIONS OF MIDAZOLAM FOR BUCCAL ADMINISTRATION IN THE TREATMENT OF SEIZURES TO OBTAIN RAPID ONSET OF ACTION” (SWIPP AB, priority 2015, published 2018):
Where a name gives a salt, the structure may show the parent alone. Read-outs that look alike come from different tables or passages of the source.

What was measured:
[1] = Pilot in vivo study: midazolam film preparation applied on the oro-mucosal membrane, plasma levels by LC-MS/MS; conditions: for Corresponding plasma levels in children weighing 20 kg: at least; for Side-effects: healthy volunteers
Method: Film preparations weighing approximately 0.07 g (1×2 cm) containing 2 mg midazolam hydrochloride were applied on the oro-mucosal membrane in healthy volunteers (body weight 90 kg). Venous blood samples were drawn 6, 12 and 18 minutes after application.
Film preparations weighing approximately 0.07 g (1×2 cm) containing 1 mg midazolam hydrochloride were applied on the oro-mucosal membrane in healthy volunteers (body weight 90 kg). Venous blood samples were drawn 6, 12 and 18 minutes after application.

[2] = cited from earlier work
[3] = cited from earlier work; remark: listed apart in the source
[4] = midazolam solution 5 mg buccal, healthy volunteers (Schwagmeier et al. 1998)
[5] = human, plasma, other: applied on the oro-mucosal membrane, 1 mg

Cc1ncc2n1-c1ccc(Cl)cc1C(c1ccccc1F)=NC2 [midazolam, Midazolam]
Blood levels ([1]; buccal film or wafer, dose 2 mg, adult volunteers (summary in description)): 5 to 10 ng/mL | Plasma level ([1]; buccal film, dose 1 mg midazolam, adult 90 kg (summary in description)): about 5 ng/mL | Plasma level (in words) ([1]; buccal film, dose 1 mg, adults average body weight 90 kg): therapeutic levels | Time to anticonvulsive effect ([2]; adults administered 10-20 mg (Nakken et al. 2011)): ≤ 5 min | Time to anticonvulsive effect ([2]; children, buccal dose 0.2 mg/kg (Talukbar et al. 2009)): ≤ 5 min | Time to plasma concentration of 5 ng/mL ([3]; approx. 10 mg midazolam, adult volunteers, most of the subjects (Scott et al. 1998)): 5 to 10 min | Blood levels [3, 4]: 5 to 10 ng/mL | Time to blood levels of 5-10 ng/mL [3, 4]: 3 to 6 min

Cc1ncc2n1-c1ccc(Cl)cc1C(c1ccccc1F)=NC2 [midazolam hydrochloride, Midazolam hydrochloride]
Corresponding plasma levels in children weighing 20 kg ([1]; extrapolated from adults given 1 mg film): 15 to 20 ng/mL | Corresponding plasma levels in children weighing 20 kg ([1]; extrapolated from adults given 2 mg film): 15 to 50 ng/mL | Side-effects ([1]; film containing 1 mg midazolam hydrochloride): No side-effects were observed | Side-effects ([1]; film containing 2 mg midazolam hydrochloride): No side-effects were observed | Average plasma levels ([1]; film containing 2 mg midazolam hydrochloride, oro-mucosal, healthy volunteers 90 kg): 5 ng/mL | concentration at 6 min [1, 5]: 1 ng/mL | concentration at 12 min [1, 5]: 4.6 ng/mL
